Key:
[1] = target: CDK1-cyclin B (Homo sapiens, UniProt P06493); assay: Kinase assay (radioactive phosphate incorporation), CDK1-cyclin B; type: biochemical; settings: read-out: Kinase Inhibition pIC50 CDK1-cyclin B (converted)
Outline: (§1)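 Recombinant kinases (2-4 μg) with polypeptide substrates in pH 7.4 MOPS/β-glycerophosphate buffer. Reactions started with 15 mM MgCl2 + 100 μM ATP containing [γ-32P]-ATP and incubated at 30° C. Filter-bound incorporated radioactivity counted by scintillation; compounds diluted from DMSO stocks into 10% DMSO buffer.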

[2] = target: CDK7/cyclin H (Homo sapiens, UniProt P50613); assay: CDK 7 assay (CTD peptide substrate); type: biochemical; settings: read-out: Kinase Inhibition pIC50 CDK7-cyclin H (converted)
Outline: (§2)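 Radiometric assay: recombinant human CDK9/cyclin T1 or CDK7/cyclin H with biotinylated CTD heptapeptide-repeat substrate, 100 μM ATP with [γ-32P]ATP, 15 mM MgCl2, MOPS pH 7.2, 45 min at 30 °C. Avidin-captured substrate filtered onto P81; 32P incorporation counted by scintillation.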

[3] = target: GSK3b (Homo sapiens, UniProt P49841); assay: Kinase assay (radioactive phosphate incorporation), GSK-3b; type: biochemical; settings: read-out: Kinase Inhibition pIC50 GSK-3b (converted)
Outline: as §1

[4] = target: T1, Flt3 (FMS-like tyrosine kinase-3) (Homo sapiens, UniProt P36888); assay: Kinase assay (radioactive phosphate incorporation), Flt3; type: biochemical; settings: pIC50 is -log(IC50, M), read-out: Kinase Inhibition pIC50 Flt3 (converted)
T1 sequence (P36888 27-993): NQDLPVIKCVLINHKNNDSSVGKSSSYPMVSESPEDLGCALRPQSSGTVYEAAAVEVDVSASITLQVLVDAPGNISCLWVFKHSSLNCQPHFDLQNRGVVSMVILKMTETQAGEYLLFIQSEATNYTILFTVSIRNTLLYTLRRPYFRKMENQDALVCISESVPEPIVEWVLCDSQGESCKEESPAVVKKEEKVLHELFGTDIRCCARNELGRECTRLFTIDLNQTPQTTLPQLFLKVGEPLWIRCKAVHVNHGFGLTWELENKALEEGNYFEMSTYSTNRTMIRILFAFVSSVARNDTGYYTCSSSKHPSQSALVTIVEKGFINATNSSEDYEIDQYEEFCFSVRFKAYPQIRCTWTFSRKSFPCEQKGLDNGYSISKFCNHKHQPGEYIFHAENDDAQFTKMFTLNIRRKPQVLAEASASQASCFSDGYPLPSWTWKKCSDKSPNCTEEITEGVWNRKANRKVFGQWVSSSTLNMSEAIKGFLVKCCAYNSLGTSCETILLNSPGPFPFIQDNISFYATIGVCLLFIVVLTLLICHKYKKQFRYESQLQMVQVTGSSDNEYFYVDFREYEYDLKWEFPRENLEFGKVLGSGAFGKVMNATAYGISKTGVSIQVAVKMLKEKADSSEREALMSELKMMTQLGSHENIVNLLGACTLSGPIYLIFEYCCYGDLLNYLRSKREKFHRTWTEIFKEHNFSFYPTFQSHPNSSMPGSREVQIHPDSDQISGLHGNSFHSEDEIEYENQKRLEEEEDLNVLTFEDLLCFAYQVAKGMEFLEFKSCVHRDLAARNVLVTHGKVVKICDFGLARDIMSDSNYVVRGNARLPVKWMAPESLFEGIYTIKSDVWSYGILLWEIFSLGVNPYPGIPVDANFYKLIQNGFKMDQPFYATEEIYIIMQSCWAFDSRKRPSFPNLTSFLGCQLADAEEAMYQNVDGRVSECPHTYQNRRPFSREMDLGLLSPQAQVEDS
Outline: as §1

[5] = target: CDK4-cyclin D1 (Homo sapiens, UniProt P11802); assay: Kinase assay (radioactive phosphate incorporation), CDK4-cyclin D1; type: biochemical; settings: read-out: Kinase Inhibition pIC50 CDK4-cyclin D1 (converted)
Outline: as §1

[6] = target: CDK9/cyclin T1 (Homo sapiens, UniProt P50750); assay: CDK 9 assay (CTD peptide substrate); type: biochemical; settings: read-out: Kinase Inhibition pIC50 CDK9-cyclin T1 (converted)
Outline: as §2

[7] = target: CDK2-cycline E (Homo sapiens, UniProt P24941); assay: Kinase assay (radioactive phosphate incorporation), CDK2-cyclin E; type: biochemical; settings: read-out: Kinase Inhibition pIC50 CDK2-cycline E (converted)
Outline: as §1

[8] = target: CDK2-cyclin A (Homo sapiens, UniProt P24941); assay: Kinase assay (radioactive phosphate incorporation), CDK2-cyclin A; type: biochemical; settings: read-out: Kinase Inhibition pIC50 CDK2-cyclin A (converted)
Outline: as §1

[9] = target: T2, Aurora A kinase (Homo sapiens, UniProt O14965); assay: Aurora-A (human) kinase assay (Kemptide substrate); type: biochemical; settings: pIC50 is -log(IC50, M); 15 μM ATP; read-out: Kinase Inhibition pIC50 Aurora A kinase (converted)
T2 construct: purchased
T2 sequence (O14965 1-403): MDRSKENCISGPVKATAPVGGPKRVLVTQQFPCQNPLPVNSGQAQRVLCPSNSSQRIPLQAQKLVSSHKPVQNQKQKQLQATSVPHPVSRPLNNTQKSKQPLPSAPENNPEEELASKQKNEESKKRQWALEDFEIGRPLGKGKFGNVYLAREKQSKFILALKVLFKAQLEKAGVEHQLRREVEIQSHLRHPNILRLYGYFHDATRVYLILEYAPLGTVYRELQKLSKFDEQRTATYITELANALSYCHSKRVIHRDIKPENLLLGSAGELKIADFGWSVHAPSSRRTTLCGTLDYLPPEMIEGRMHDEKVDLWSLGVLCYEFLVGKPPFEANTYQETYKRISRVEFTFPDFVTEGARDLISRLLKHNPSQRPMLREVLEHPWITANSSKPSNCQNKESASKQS
Outline: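 Radiometric filter-binding assay: commercial aurora-A kinase (5-10 ng) with 200 μM Kemptide in MOPS/EDTA pH 7.0, started with 10 mM Mg acetate and 15 μM ATP plus [γ-33P]-ATP. Incubated 40 min at room temperature, stopped with phosphoric acid, incorporated 33P counted by scintillation.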

CDK7/cyclin H, sequence (P50613 whole entry): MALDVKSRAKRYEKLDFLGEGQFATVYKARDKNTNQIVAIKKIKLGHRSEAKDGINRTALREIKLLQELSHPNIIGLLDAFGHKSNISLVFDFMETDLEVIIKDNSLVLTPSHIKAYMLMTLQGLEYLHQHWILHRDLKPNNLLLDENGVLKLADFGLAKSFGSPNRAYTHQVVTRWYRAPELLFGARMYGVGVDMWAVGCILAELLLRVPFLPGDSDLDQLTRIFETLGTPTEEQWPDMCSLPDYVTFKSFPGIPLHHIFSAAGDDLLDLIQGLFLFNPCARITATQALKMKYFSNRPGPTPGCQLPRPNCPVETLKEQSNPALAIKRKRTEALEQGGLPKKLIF
CDK7/cyclin H, sequence (P51946 whole entry partner): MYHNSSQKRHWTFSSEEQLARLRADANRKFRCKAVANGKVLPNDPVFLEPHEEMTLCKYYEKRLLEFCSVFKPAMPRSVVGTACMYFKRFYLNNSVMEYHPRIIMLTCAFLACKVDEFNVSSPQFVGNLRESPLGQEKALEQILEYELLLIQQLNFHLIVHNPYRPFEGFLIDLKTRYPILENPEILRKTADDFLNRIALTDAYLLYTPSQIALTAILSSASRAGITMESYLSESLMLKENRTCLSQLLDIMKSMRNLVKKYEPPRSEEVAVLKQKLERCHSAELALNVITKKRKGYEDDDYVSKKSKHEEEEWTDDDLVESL
CDK1-cyclin B, sequence (P06493 whole entry): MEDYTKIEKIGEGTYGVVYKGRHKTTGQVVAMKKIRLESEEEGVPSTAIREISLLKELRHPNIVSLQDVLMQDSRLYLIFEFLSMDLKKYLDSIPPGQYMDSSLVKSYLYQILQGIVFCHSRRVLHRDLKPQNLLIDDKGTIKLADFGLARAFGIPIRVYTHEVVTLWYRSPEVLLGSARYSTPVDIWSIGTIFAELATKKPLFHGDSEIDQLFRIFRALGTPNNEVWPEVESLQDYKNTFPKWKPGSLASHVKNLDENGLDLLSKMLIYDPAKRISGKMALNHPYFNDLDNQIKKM
CDK1-cyclin B, sequence (P14635 whole entry partner): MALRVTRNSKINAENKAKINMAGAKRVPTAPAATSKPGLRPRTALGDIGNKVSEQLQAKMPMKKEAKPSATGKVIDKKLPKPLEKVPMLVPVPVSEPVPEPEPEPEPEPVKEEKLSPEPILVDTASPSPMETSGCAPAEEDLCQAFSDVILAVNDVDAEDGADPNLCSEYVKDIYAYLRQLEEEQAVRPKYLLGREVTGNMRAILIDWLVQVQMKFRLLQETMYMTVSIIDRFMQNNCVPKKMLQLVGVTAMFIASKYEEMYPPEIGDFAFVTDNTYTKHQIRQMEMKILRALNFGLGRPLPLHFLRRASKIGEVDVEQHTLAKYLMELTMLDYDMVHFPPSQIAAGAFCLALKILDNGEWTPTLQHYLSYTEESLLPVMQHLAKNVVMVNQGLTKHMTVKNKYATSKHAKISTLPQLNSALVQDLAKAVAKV
GSK3b, sequence (P49841 whole entry, species assumed): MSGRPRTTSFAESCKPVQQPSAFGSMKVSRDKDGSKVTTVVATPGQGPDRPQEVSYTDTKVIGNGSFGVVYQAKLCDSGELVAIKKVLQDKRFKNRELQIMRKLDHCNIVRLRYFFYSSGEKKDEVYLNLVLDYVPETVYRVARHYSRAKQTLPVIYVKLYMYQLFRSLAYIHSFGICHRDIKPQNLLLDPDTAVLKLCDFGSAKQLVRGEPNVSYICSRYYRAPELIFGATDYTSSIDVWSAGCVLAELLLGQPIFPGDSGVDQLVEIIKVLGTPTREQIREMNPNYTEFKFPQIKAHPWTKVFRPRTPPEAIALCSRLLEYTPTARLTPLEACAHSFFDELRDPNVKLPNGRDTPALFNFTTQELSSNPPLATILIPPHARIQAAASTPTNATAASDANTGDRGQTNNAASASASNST
CDK4-cyclin D1, sequence (P11802 whole entry): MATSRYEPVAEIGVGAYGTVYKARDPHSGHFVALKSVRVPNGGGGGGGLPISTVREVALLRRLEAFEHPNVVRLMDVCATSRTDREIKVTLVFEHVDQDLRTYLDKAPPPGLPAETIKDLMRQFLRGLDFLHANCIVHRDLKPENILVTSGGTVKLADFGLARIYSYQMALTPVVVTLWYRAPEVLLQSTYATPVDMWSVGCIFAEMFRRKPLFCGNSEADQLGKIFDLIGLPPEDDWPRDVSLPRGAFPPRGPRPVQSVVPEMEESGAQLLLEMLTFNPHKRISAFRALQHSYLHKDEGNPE
CDK4-cyclin D1, sequence (P24385 whole entry partner): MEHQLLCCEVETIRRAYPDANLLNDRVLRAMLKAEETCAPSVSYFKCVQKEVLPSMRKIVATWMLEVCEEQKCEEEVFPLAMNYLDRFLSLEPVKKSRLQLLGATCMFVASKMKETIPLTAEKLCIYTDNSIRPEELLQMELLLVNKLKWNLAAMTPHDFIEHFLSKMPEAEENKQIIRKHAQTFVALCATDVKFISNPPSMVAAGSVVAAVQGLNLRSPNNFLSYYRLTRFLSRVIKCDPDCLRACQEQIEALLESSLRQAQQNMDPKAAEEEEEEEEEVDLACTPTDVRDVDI
CDK9/cyclin T1, sequence (P50750 whole entry): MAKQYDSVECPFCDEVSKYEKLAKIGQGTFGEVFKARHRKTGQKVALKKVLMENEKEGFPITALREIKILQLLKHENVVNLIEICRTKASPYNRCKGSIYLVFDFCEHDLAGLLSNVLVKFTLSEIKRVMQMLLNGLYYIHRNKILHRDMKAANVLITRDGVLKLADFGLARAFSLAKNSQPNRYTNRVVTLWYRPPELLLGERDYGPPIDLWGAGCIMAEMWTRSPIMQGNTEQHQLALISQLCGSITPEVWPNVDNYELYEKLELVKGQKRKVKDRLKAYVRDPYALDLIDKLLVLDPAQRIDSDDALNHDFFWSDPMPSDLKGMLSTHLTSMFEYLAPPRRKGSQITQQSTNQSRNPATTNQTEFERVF
CDK9/cyclin T1, sequence (O60563 whole entry partner): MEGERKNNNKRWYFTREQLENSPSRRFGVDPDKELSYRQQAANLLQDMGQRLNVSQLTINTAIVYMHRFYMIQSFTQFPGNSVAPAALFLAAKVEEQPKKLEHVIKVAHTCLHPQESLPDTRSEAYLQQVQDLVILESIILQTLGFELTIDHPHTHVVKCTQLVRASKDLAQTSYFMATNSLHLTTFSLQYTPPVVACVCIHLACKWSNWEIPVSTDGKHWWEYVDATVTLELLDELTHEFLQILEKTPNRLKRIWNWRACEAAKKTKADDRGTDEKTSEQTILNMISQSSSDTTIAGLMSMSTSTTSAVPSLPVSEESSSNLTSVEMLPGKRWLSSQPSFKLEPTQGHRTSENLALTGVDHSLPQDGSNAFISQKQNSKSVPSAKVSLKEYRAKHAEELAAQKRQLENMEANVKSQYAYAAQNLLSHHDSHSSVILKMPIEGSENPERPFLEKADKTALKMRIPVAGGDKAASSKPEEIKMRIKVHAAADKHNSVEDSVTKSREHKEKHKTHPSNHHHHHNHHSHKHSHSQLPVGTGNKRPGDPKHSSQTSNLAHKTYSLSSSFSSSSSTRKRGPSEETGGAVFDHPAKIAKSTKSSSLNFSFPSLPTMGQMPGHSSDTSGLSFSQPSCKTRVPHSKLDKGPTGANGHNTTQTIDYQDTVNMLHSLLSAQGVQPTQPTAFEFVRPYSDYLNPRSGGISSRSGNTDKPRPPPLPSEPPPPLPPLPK

Row | IC50 [1] | IC50 [2] | IC50 [3] | IC50 [4] | IC50 [5] | IC50 [6] | melting point | IC50 [7] | IC50 [8] | IC50 [9] | Structure (SMILES)
1 | 1000 nM | 398 nM | 794 nM | 63.1 nM | 126 nM | 63.1 nM | 124 to 125 °C | 200 nM | 1260 nM | – | CCNc1nc(C)c(-c2ccnc(Nc3cccc(S(=O)(=O)NCCO)c3)n2)s1 [Compound 75, 3-[4-(2-Ethylamino-4-methyl-thiazol-5-yl)-pyrimidin-2-ylamino]-N-(2-hydroxy-ethyl)-benzenesulfonamide]
2 | 1260 nM | 794 nM | 501 nM | 100 nM | 100 nM | 63.1 nM | 189 to 190 °C | 316 nM | 1580 nM | 39.8 nM | CNc1nc(C)c(-c2ccnc(Nc3cccc(S(=O)(=O)NCCO)c3)n2)s1 [Compound 76, N-(2-Hydroxy-ethyl)-3-[4-(4-methyl-2-methylamino-thiazol-5-yl)-pyrimidin-2-ylamino]-benzenesulfonamide]
